Like-named read-outs stand apart in the source and are kept apart here.
Tests used:
NMDA receptor = assay: [3H]MK-801 binding assay, NMDA receptors in guinea pig brain membranes; settings: for Relative affinity: compared to that of Memantine
Description: Hartley guinea pigs were sacrificed, and their brains were quickly removed and weighed. The brains then were homogenized in 50 mM Tris HCl buffer, pH 7.7, using a Polytron homogenizer. The homogenate was centrifuged at 40,000×g for 15 min, rehomogenized, and centrifuged again. The final pellet was resuspended in Tris-HCl, pH 7.7, at a final concentration of 6.67 mg original wet weight of tissue/ml. […] The samples were then filtered through glass fiber filters on a Tomtec cell harvester. The filters were washed 3 times with 3 ml of cold buffer. Filters were dried overnight and counted next day on a Wallac Betaplate Reader.
The binding experiments were conducted as follows. […] For each compound, graphs were prepared containing individual competition curves obtained for that compound. IC50 values and Hill coefficients were calculated using the program Prism. Ki values were calculated using the Chang Prusoff transformation: Ki=IC50/(1+L/Kd)
where L is radioligand concentration and Kd is the binding affinity of the radioligand, as determined previously by saturation analysis. […] In each experiment, one standard compound was simultaneously run on each 96 well plate.

[1] = tested on: primary neurons from rat cerebral cortex; assay: NMDA-induced LDH release assay in primary cortical neurons (neuroprotection); assay type: cell-based; set-up: Total LDH (Avg): unit not given here; settings: for EC50: Rattus norvegicus, Primary neuron, two experiments, 300 uM NMDA + 50 μM glycine 15 minutes, LDH after 24 hours, read-out: average EC50 (±SD), NMDA-induced LDH release; for % (Control Wash = 100) / Secreted LDH (Avg) / Secreted/(total + secreted) (Avg) / Total LDH (Avg): MDT compound 30 uM, 24 hour incubation
Description: The neuroprotective properties of drugs have been studied in vitro, using neurons cultured from cortex, cerebellum or retina. […] Neurotoxicity is determined in this assay by measuring lactate dehydrogenase (LDH), a method which is simple, accurate and reproducible. We conducted pilot studies to test if poly-lysine-coated plates would be suitable as a matrix upon which to plate fetal neurons, compared to astrocyte-coated plates. We also compared the use of growth medium to neurobasal medium supplemented with B27 in the pilot experiments. The concentrations of NMDA (300-500 μM), glycine (10-50 μM), and memantine (10-100 μM) were varied, and optimum concentrations and times determined from these pilot studies were then chosen for the main study. The assay is described below.
Fetal rat neocortical cells were cultured on a mouse astroglial feeder layer. To obtain mouse astroglial cells for the feeder layer, cortices were harvested from 1-day old Swiss Webster mice (Charles River, Hollister, Calif.) according to the procedure described by Rose et al (1993). After dissecting cortices in ice-cold dissecting medium, they were minced and incubated in 0.09% trypsin in media stock for 1 hr, followed by resuspension in growth medium containing 10% equine serum and 10% fetal bovine serum. A single-cell suspension was obtained by triturating through fire-bored glass pipettes, and the resulting cell suspension was plated at a density of 0.5-0.75 hemispheres/24-well plate/9.6 ml, with 0.4 ml/well. Plates were incubated in a humidified incubator at 37° C., 5% CO2. Astroglial cells become confluent in about 2-3 weeks, at which time these cultures are ready to be used as feeder layers upon which neuronal cultures can be plated. Neuronal cells were obtained from gestational Sprague-Dawley rats E16-E18, using a similar dissection procedure. Rat embryos were dissected to obtain cortical tissue, which was plated as a single-cell suspension at a density of 1.4 hemispheres/24-well plate/9.6 ml, with 0.4 ml/well. These cells were plated on the existing astroglial feeder layer, and were incubated at 37° C., 5% CO2. After 5 days in culture, cytosine arabinoside (10 μM) was added to the wells to inhibit glial cell proliferation, and after 24 hours, the medium was replaced with fresh growth medium. Cells were fed with fresh growth medium every 2 days, until the experiments were performed. For coating plates with poly-lysine, we used poly-d-lysine hydrobromide (Sigma Cat # P7280) at a concentration of 0.1 mg/ml to coat each well using a minimum volume of 0.2 ml/well. After coating for 5 minutes, the solution was aspirated and wells were rinsed thoroughly with sterile tissue culture grade water. After drying for 2 hours, plates were ready for use. Neuronal cultures were plated onto poly-lysine-coated plates at the same density as above. For the pilot study, some of the cultures were fed with 1:1 ratio of growth medium: neurobasal medium (GIBCO)+B-27 supplement (2%), while the rest of the cultures were fed with growth medium alone (Losi et al., 2006). For the main study, we used astroglial feeder layers to plate the neuronal cultures, and used a mix (1:1) of growth medium with neurobasal medium+B-27 supplement for feeding the cultures.
After 11-14 days in culture, neuronal cells were confluent and experiments were performed. Cells were washed twice using sterile Locke's buffer (154 mM NaCl, 5.6 mM KCl, 2.3 mM CaCl2, 3.6 mM NaHCO3, 5.5 mM D-glucose, 5 mM HEPES, pH 7.4), and then exposed to the various treatment compounds. […] After 15 minutes, cultures were washed twice and incubated overnight in media stock. After 24 hours, supernatants and lysates were collected to measure LDH activity. LDH activity was measured by the reduction of NAD, which was utilized in the stoichiometric conversion of a tetrazolium dye using a kit (Sigma TOX-7). Supernatants were removed from the wells and centrifuged before LDH measurements. The adherent cells were lysed to obtain total LDH. […]

[2] = guinea pig brain membrane preparation (Table 29), read-out: Ki
[3] = Plate #5, astrocyte-coated rat neurons, GM fed
[4] = [3H]MK-801 (1 nM), guinea pig brain membrane preparation, read-out: Ki (binding affinity)
[5] = Plate #4, poly-lysine-coated rat neurons, GM/NB + B-27 fed
[6] = astrocyte-coated rat neurons, GM/NB + B-27 fed

Relative affinity (NMDA receptor) | Ki (NMDA receptor; [2]) | Compound | further results
0.045 | 13.4 ± 5.1 µM | CC12CC3CC4C5CC(N)(CC41)CC2C5C3 [MDT-24, 1-methyl-4-aminodiamantane] | EC50 [1]: 34.3 ± 11.3 µM
– | > 1000 µM | OC12CC3C4CC5C6CC7CC5C(C4C1)C(C7)(C2)C63 [MDT-42] | –
0.091 | 8 ± 0.9 µM | Cl.NCC12CC3C4CC5CC3C(C1)C(C5)C4C2 [MDT-61] | –
– | > 1000 µM | OC12CC3C4CC5C6CC7(O)CC5C(C4C1)C(C2)(C7)C36 [MDT-15] | –
0.143 | 5.1 ± 0.7 µM | CC12CC3CC4C1CC1CC2C(N)(C3)C4(C)C1 (centres unmarked) [MDT-43, 1,6-dimethyl-2-aminodiamantane] | EC50 [1]: 28.4 ± 12.8 µM
– | – | NC12CC3CC4C5CC(CC41)CC2C5C3 [MDT #2] | % (Control Wash = 100) [1, 3]: 118%; Secreted LDH (Avg) [1, 3]: 0.23; Secreted/(total + secreted) (Avg) [1, 3]: 6.93; Total LDH (Avg) [1, 3]: 3.09
– | > 1000 µM | mixture of 4-methyl-9-aminodiamantane and 4-aminodiamantane [MDT-34] | –
0.002 | – | NC12CC3C4CC5C6CC7CC5C(C4C1)C(C7)(C2)C63 [MDT-49, 9-amino-triamantane] | Ki (NMDA receptor; [4]): 389 µM
0.074 | 9.9 ± 0.45 µM | 1,6-dimethyl-4-aminodiamantane mixture [MDT-7] | –
0.007 | 99.6 ± 7.6 µM | NC12CC3CC4C1CC1CC2C(C3)C4(N)C1 [MDT-4] | –
– | > 1000 µM | CC12CC3CC4C1CC1(C(=O)O)CC2C(C3)C4(C)C1 [MDT-46, 1,6-dimethyl-4-diamantanecarboxylic acid] | –
– | – | NC12CC3C4CC5(N)CC3C(C1)C(C5)C4C2 [MDT #5] | % (Control Wash = 100) [1, 3]: 123%; Secreted LDH (Avg) [1, 3]: 0.25; Secreted/(total + secreted) (Avg) [1, 3]: 7.21; Total LDH (Avg) [1, 3]: 3.27
0.183 | 4 ± 0.1 µM | CC(N)C12CC3CC4C5CC(CC41)CC2C5C3 (centres unmarked) [MDT-57] | –
– | > 1000 µM | O=C(O)C12CC3CC4C1CC1CC2C(C3)C4(C(=O)O)C1 [MDT-39] | –
0.097 | 7.5 ± 2.4 µM | NC12CC3CC4C5CC(CC41)CC2C5C3 [MDT-1] | –
– | > 1000 µM | O=C(O)C12CC3CC4C5CC(CC41)CC2C5C3 [MDT-38] | –
– | > 1000 µM | O=C1C2CC3C4CC5CC3C1C(C5)C4C2 [MDT-59] | –
– | – | NC12CC3CC4C5CC(CC41)CC2C5C3 [MDT #1] | % (Control Wash = 100) [1, 3]: 99%; Secreted LDH (Avg) [1, 3]: 0.18; Secreted/(total + secreted) (Avg) [1, 3]: 5.81; Total LDH (Avg) [1, 3]: 2.96
0.003 | 268 ± 19 µM | NC12CC3C4CC5(N)CC3C(C1)C(C5)C4C2 [MDT-5] | –
0.018 | 41 ± 10.7 µM | CC12CC3CC4C1CC1(N)CC2C(C3)C4(N)C1 [MDT-29] | –
– | – | OC12CC3CC4C1CC1CC4C(O)(C3)C2C1 [MDT #13] | % (Control Wash = 100) [1, 5]: 139%; Secreted LDH (Avg) [1, 5]: 0.54; Secreted/(total + secreted) (Avg) [1, 5]: 15.25; Total LDH (Avg) [1, 5]: 2.99; % (Control Wash = 100) [1, 6]: 276%; Secreted LDH (Avg) [1, 6]: 0.85; Secreted/(total + secreted) (Avg) [1, 6]: 19.97; Total LDH (Avg) [1, 6]: 3.41
0.187 | 3.9 ± 0.2 µM | mixture of 1-methyl-2-aminodiamantane and 1-methyl-6-aminodiamantane [MDT-31] | –

Relative affinity (NMDA receptor) | Ki (NMDA receptor; [2]) | Compound | further results
– | > 1000 µM | O=NC12CC3C4CC5CC3C(C1)C(C5)C4C2 [MDT-27] | –
– | > 1000 µM | CC12CC3CC4C1CC1CC2C(O)(C3)C4(C)C1 (centres unmarked) [MDT-44, 1,6-dimethyl-2-hydroxydiamantane] | –
– | > 1000 µM | CC12CC3C4CC5(C)CC3C(C1)C(C(=O)O)(C5)C4C2 [MDT-52, 4,9-dimethyl-1-diamantanecarboxylic acid] | –
– | > 1000 µM | OC12CC3CC4C5CC(CC41)CC2C5C3 [MDT-10] | –
– | > 1000 µM | OC12CC3CC4C1CC1C5CC6CC1C2C(C6)(C3)C54 (centres unmarked) [MDT-41] | –
0.064 | 11.4 ± 3.7 µM | mixture of 1-amino-4-methyldiamantane and 2-amino-4-methyldiamantane [MDT-32] | –
– | > 1000 µM | OC12C3CC4CC5C3CC3C6CC(CC31)CC2(C4)C56 [MDT-40] | –
0.100 | 7.3 ± 1.1 µM | CC12CC3CC4C1CC1(CN)CC2C(C3)C4(C)C1 [MDT-65] | –
– | > 1000 µM | OC12CC3C4CC5CC3C(C1)C(C5)C4C2 [MDT-11] | –
0.007 | 112 ± 14 µM | CC12CC3C4CC5(C)CC(C(C1)C3(N)C5)C4(N)C2 [MDT-53, 4,9-dimethyl-1,6-diaminodiamantane] | –
0.114 | 6.4 ± 0.13 µM | NC12CC3CC4C5CC(CC41)CC2C5C3 [MDT-2] | –
– | > 1000 µM | OC12CC3CC4C1CC1CC4C(O)(C3)C2C1 [MDT-13] | –
– | > 1000 µM | CC12CC3C4CC5(C)CC3C(C1)C(O)(C5)C4C2 [MDT-47, 4,9-dimethyl-1-hydroxydiamantane] | –
0.143 | 5.1 ± 0.3 µM | CC12CC3C4CC5(C)CC3C(C1)C(CN)(C5)C4C2 [MDT-63] | –
– | > 1000 µM | CC12CC3C4CC5CC3C(C1)C(C5)C4C2 [MDT-60] | –
0.074 | 9.8 ± 4.5 µM | NCC12CC3CC4C5CC(CC41)CC2C5C3 [MDT-56] | –
0.159 | 4.6 ± 0.18 µM | 1,6-dimethyl-2-aminodiamantane mixture [MDT-6] | –
0.052 | – | 3-amino-triamantane [MDT-48] | Ki (NMDA receptor; [4]): 14 µM
0.007 | 98.6 ± 0.1 µM | CC12CC3CC4C1CC1(O)CC2C(C3)C4(C)C1 [MDT-45, 1,6-dimethyl-4-hydroxydiamantane] | –
– | > 1000 µM | CC12CC3(N)CC4C5CC(N)(CC41)CC2C5C3 [MDT-28, 1-methyl-4,9-diaminodiamantane] | –
– | > 1000 µM | O=NC12CC3CC4C5CC(CC41)CC2C5C3 [MDT-26] | –
– | > 1000 µM | OC12CC3C4CC5(O)CC3C(C1)C(C5)C4C2 [MDT-14] | –

Compound | Relative affinity (NMDA receptor) | Ki (NMDA receptor; [2]) | further results
CC12CC3(N)CC4C5CC(CC41)CC2C5C3 (single isomer, unassigned) [MDT-22 (prep from Example 7)] | 0.070 | 10.5 ± 1 µM | –
CC12CC3CC4C1CC1(N)CC2C(C3)C4(C)C1 [MDT-23 (prep from Example 5)] | 0.243 | 3 ± 0.9 µM | –
CC12CC3CC4C1CC1(N)CC2C(C3)C4(C)C1 [MDT-23 (prep from Example 4)] | 0.187 | 3.9 ± 0.07 µM | –
CC12CC3CC4C1CC1(N)CC2C(C3)C4(C)C1 [MDT-33, 1,6-dimethyl-4-aminodiamantane] | 0.094 | 7.8 ± 0.9 µM | –
CC12CC3(N)CC4C5CC(CC41)CC2C5C3 (single isomer, unassigned) [MDT-22 (prep from Example 4)] | 0.332 | 2.2 ± 0.9 µM | –

Source: patent US20080009546A1 (Chevron U.S.A. Inc., priority 2005, published 2008)
